Data: patent US8632824B2, “Process of obtaining thylakoids from photosynthetic organisms; plant fractions obtained from the process; pure thylakoids; and methods of use of thylakoids as ROS scavengers, photo-protectors, biosensors, biofilters and bioreactors” (Purgenesis Technologies, Inc., priority 2000, dated 2014)

Assays:
[1] = Oxidation of PLPC micelles by peroxyl radicals from AAPH (absorbance at 234 nm); assay type: biochemical; conditions: FIG. 10
Description: The peroxidation of unsaturated lipid moieties (reactions 1-3) causes changes in their structure which eventually changes the physical properties of biological membranes. During the lipid peroxidation a conjugated diene group is formed (see LOOH in reaction 3) which has an UV/Vis absorption maximum at λmax=234 nm (ε=29,500 M^−1cm^−1) and this allows a quantification of the oxidation product formed. To obtain quantitative data the lipid peroxidation has to be initiated in a controlled manner (reaction 1). Often azo initiators, which produce a well-defined flux of ROO. in aqueous, aerated solution, are employed to study lipid oxidation in in vitro experiments. […]
Depending on possible reaction pathways of the antioxidant used the concentration time profiles of the detected LOOH display certain characteristics. By using an azo initiator as peroxyl radical source the amount of ROO. generated can be calculated and it is possible to determine the amount of lipids oxidized from the 234 nm absorption of the conjugated diene moiety. Also the amount of ROO. trapped during the lag phase can be determined.
From the duration of a possible lag phase during lipid peroxidation experiments (FIG. 9) the amount of “trapped” radicals can be calculated. […]
The reactions were monitored on a spectrophotometer at 37° C. for 10 h. […]

IMR-32 cells [2] = assay: Estimation of apoptosis in IMR-32 cells by LDH assay; conditions: lysed cells = 100%
Description: For this experiment IMR-32 cells were grown in MEM medium without I-Glutamine, Phenolphtaleine and sodium pyruvate 3000 IMR-32 cell/well seeded in 96 well plates. […] After 1 hour the cells were washed with PBS two times and PBS was replaced with the growth medium. […] Two rows were left untreated as Control. The LDH activity was measured by Lactate Dehydrogenase Assay Kit provided by Sigma Diagnostics. The calorimetric assay measures the residual pyruvate (substrate of the enzymatic reaction). The basal activity present in the medium alone (in the absence of Cells) was considered 0% and was systematically subtracted from each experimental value. Control untreated cells in two rows were lysed with Triton X-100 (0.02%) and were treated as samples with 100% LDH release.
The assay used in the present study measures the residual level of enzyme substrate (pyruvate) using a calorimetric reaction. The more the substrate in the medium, the less enzyme released. Medium cells was taken as 0% enzyme activity released, and lysed cells in the medium as 100% released.

IMR-32 cells [3] = assay: Protection of IMR-32 cells against TBHP oxidative stress (Hoechst DNA survival assay); assay type: cell-based, Human; conditions: for apoptosis produced by TBHP: 1000 cells per well, 1 hour
Description: Human neuroblastoma cell line (IMR-32), which is known to respond to oxidative stress by apoptosis (Kim et al, 1999), was used as an in vitro cell model. IMR32 cells are particularly sensitive to ROS and other toxicants because their p53 gene product is sequestered in the cytoplasm.
Tert-butyl hydroperoxide (TBHP) was used as an oxidative stress-inducing agent. […] This will allow comparisons if studies relative to more generalized oxidative stress conditions (like the ones found in many neurodegenerative diseases) have to be performed on different cells phenotypes.
Experiments were done using 1000 IMR-32 cells per well, for I hour of incubation. TBHP 50, 75 and 100 μM produced 78%, 87% and 87% apoptosis. TBHP 50 μM was selected to induce apoptosis in the other experiments.
Different dilutions were used on IMR-32 cells along with TBHP. A mother solution 1:10 was constituted, starting from the lyophilized thylakoid fraction, in propylene glycol. Unless otherwise specified, the mentioned dilutions are dilutions of this mother solution. […] The latter dilution was adopted for further experimentation.
IMR-32 Cells were grown in MEM supplemented with 10% FBS at 37° C. in a humidified atmosphere of 95% air and 5% CO2. The cells were seeded at a density of 1×10^4 cells/T25 Falcon tissue culture flasks and subcultured twice weekly. 48 h old cultures were used in all the experiments.
1000 or 3000 cells/well/100 uL were seeded in 96 well (Linbro flat bottom) plates in all the wells except well No. 12 of all the rows. After 24 h the cells were washed 2 times with 250 ul of PBS (pH 7.2) and 32 wells each were treated respectively with 100 and 200 uM solutions of TBHP (70% aqueous solution from Sigma Chemical Company) for 1 h. After 1 h the cells were gently washed 2 times with PBS before adding fresh growth medium. After 24 h the cell survival was assayed by a sensitive fluorimetric assay based on DNA binding fluorescent dye Hoechst by the following procedure. The test measures the total DNA of the population, a measurement which closely correlates with cell number. The medium was aspirated by gentle suction. Cells were rinsed with 250 ul PBS. PBS was aspirated with gentle suction. The rinse step was repeated. 100 uL lysis buffer (0.02% SDS in 1×SSC) was added in every well except the ones for DNA standard and Blank in row 12. The plate was incubated at 37° C. for 1 h with occasional swirling. 100 uL of 40 ug/mL of DNA was added to the DNA wells and 100 uL of 1×SSC buffer was added to the wells that were treated as Blank. 100 uL of 40 ug/ml of Hoechst 33258 in 1×SSC buffer was added to every well, and the plate was covered with Aluminum foil to protect it from light. The plate was agitated gently for 5 minutes and fluorescence was read at excitation wavelength 355 nm and emission wavelength 460 nm.
CT untreated=100%: survival after TBHP: 42%, dead cells: 100−42=58%; population size after PC: 88% difference from CT: 100−88=12% Expected population size after TBHP+PC: 100−58−12=30%. Recovered survival: 60% Survival gain in %: 60−30=30 Protection exerted: 30:60×100=50%
FRTS/1 was used as pre-treatment, co-treatment and post-treatment with the oxidative insult.
The <<Cell damages TBHP/CT>> represents the damages caused by the oxidant calculated as a percentage from the survival of untreated controls. […] The <<Expected survival>> is 100-total expected decrease. […] The <<protection exerted by PC>> is calculated as reported above.

SMILES	oxidation kinetics of lipids compared to Trolox [1]	LDH release/TBHP (IMR-32 cells [2]; TBHP 25 uM alone)	LDH release/TBHP (IMR-32 cells [2]; TBHP 50 uM alone)	apoptosis produced by TBHP (IMR-32 cells [3]; TBHP 50 μM)	apoptosis produced by TBHP (IMR-32 cells [3]; TBHP 75 μM)	apoptosis produced by TBHP (IMR-32 cells [3]; TBHP 100 μM)	Cell damages TBHP/CT (IMR-32 cells [3]; co-treatment experiment, TBHP 25 uM alone)	Cell damages TBHP/CT (IMR-32 cells [3]; co-treatment experiment, TBHP 50 uM alone)	Cell damages TBHP/CT (IMR-32 cells [3]; post-treatment experiment, TBHP 25 uM alone)	Cell damages TBHP/CT (IMR-32 cells [3]; post-treatment experiment, TBHP 50 uM alone)	Cell damages TBHP/CT (IMR-32 cells [3]; pre-treatment experiment, TBHP 25 uM alone)	Cell damages TBHP/CT (IMR-32 cells [3]; pre-treatment experiment, TBHP 50 uM alone)	survival after TBHP (IMR-32 cells [3]; worked calculation example, CT untreated=100%)
CC1=C(/C=C/C(C)=C/C=C/C(C)=C/C=C/C=C(C)/C=C/C=C(C)/C=C/C2=C(C)CCCC2(C)C)C(C)(C)CCC1 [β-carotene]	an antioxidant but with no lag phase	–	–	–	–	–	–	–	–	–	–	–	–
CC(C)(C)OO [TBHP, Tert-butyl hydroperoxide]	–	64%	92%	78%	87%	87%	39%	67%	38%	66%	58%	70%	42%
